Laboratory results reported in PubChem BioAssay AID248 (DTP/NCI, 2004).
Several values for one entry are separate records, joined by “and”; a condition that tells them apart may be missing. Equal values may be shown once. Toxic doses and inconclusive results are not listed. Cut-off read from the data, not from the text of the source: active = T/C of 150% or more; inactive = T/C below 125%.

Test system: L1210 leukemia ip in BDF1 mice, survival T/C
Test: NCI In Vivo Anticancer Drug Screen. Data for tumor model L1210 Leukemia (intraperitoneal) in B6D2F1 (BDF1) mice
Conditions: endpoint: mean survival time, higher = longer survival
Outline: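 Mice bearing the transplanted tumor received compound or vehicle. Survival of the treated group was divided by that of the vehicle-treated control group to give the ratio.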

[1] = dose: 100.0 mg/kg/injection, schedule: Q01DX009 (ip), vehicle: saline
[2] = dose: 100.0 mg/kg/injection, schedule: Q04DX003 (ip), vehicle: saline
[3] = dose: 200.0 mg/kg/injection, schedule: Q01DX009 (ip), vehicle: saline
[4] = dose: 200.0 mg/kg/injection, schedule: Q04DX003 (ip), vehicle: saline
[5] = dose: 400.0 mg/kg/injection, schedule: Q04DX003 (ip), vehicle: saline
[6] = dose: 100.0 mg/kg/injection, schedule: Q04DX003 (ip), vehicle: saline with Tween-80
[7] = dose: 200.0 mg/kg/injection, schedule: Q04DX003 (ip), vehicle: saline with Tween-80
[8] = dose: 400.0 mg/kg/injection, schedule: Q04DX003 (ip), vehicle: saline with Tween-80
[9] = dose: 75.0 mg/kg/injection, schedule: Q01DX001 (ip), vehicle: saline
[10] = dose: 100.0 mg/kg/injection, schedule: Q01DX001 (ip), vehicle: saline
[11] = dose: 200.0 mg/kg/injection, schedule: Q01DX001 (ip), vehicle: saline
[12] = dose: 400.0 mg/kg/injection, schedule: Q01DX001 (ip), vehicle: saline
[13] = dose: 100.0 mg/kg/injection, schedule: Q04DX002 (ip), vehicle: saline
[14] = dose: 100.0 mg/kg/injection, schedule: Q04DX003 (ip), vehicle: Klucel (hydroxypropylcellulose) (HPC)
[15] = dose: 200.0 mg/kg/injection, schedule: Q04DX003 (ip), vehicle: Klucel (hydroxypropylcellulose) (HPC)
[16] = dose: 400.0 mg/kg/injection, schedule: Q04DX003 (ip), vehicle: Klucel (hydroxypropylcellulose) (HPC)
[17] = dose: 200.0 mg/kg/injection, schedule: Q04DX002 (ip), vehicle: saline
[18] = dose: 400.0 mg/kg/injection, schedule: Q04DX002 (ip), vehicle: saline

Measured: T/C

CCn1c(O)c(C=N)c(=O)[nH]c1=O
inactive: [1] 96 % of control | [2] 88 % of control | [3] 93 % of control | [4] 95 % of control | [5] 90 % of control

O=C1c2ccccc2C(C(C/C(=N/O)c2ccccc2)c2ccccc2)c2ccccc21 (stereo not drawn)
inactive: [6] 93 % of control | [7] 93 % of control | [8] 100 % of control

O=C(COc1ccc(Cl)c(Cl)c1)NCc1ccc[n+](Cc2ccc([N+](=O)[O-])cc2)c1
inactive: [6] 89 % of control | [7] 91 % of control | [8] 88 % of control

CCC(C)C(CCN(C)C)(CNC(=O)CN(CC)CC)c1cccc2ccccc12 (stereo not drawn)
inactive: [1] 96 % of control | [3] 91 % of control

O=C(O)Cc1c(O)ccc2ccccc12
inactive: dose: 100.0 mg/kg/injection, schedule: Q01DX009 (ip), vehicle: gum acacia 92 % of control | dose: 100.0 mg/kg/injection, schedule: Q04DX003 (ip), vehicle: gum acacia 97 % of control | dose: 200.0 mg/kg/injection, schedule: Q01DX009 (ip), vehicle: gum acacia 90 % of control | dose: 200.0 mg/kg/injection, schedule: Q04DX003 (ip), vehicle: gum acacia 92 % of control | dose: 400.0 mg/kg/injection, schedule: Q01DX009 (ip), vehicle: gum acacia 98 % of control | dose: 400.0 mg/kg/injection, schedule: Q04DX003 (ip), vehicle: gum acacia 90 % of control

CC(=O)c1cccc(N2C(=O)CC(=P(c3ccccc3)(c3ccccc3)c3ccccc3)C2=O)c1
inactive: [9] 93 % of control

O=C(O)CN(CC(=O)O)c1ccc(/C=C/c2ccc(N(CC(=O)O)CC(=O)O)c(S(=O)(=O)O)c2)cc1S(=O)(=O)O
inactive: [1] 100 % of control | [2] 112 % of control | [3] 105 % of control | [4] 100 % of control | dose: 400.0 mg/kg/injection, schedule: Q01DX009 (ip), vehicle: saline 103 % of control | [5] 100 % of control

c1ccc(C2(c3ccccc3)CC([P+](c3ccccc3)(c3ccccc3)c3ccccc3)N=N2)cc1 (stereo not drawn)
inactive: dose: 10.0 mg/kg/injection, schedule: Q01DX001 (ip), vehicle: saline 103 % of control | dose: 20.0 mg/kg/injection, schedule: Q01DX001 (ip), vehicle: saline 111 % of control | dose: 40.0 mg/kg/injection, schedule: Q01DX001 (ip), vehicle: saline 112 % of control

CC(=O)C1(C)OC(c2ccccc2)=NC1=O (stereo not drawn)
inactive: [10] 104 % of control | [11] 93 % of control | [12] 115 % of control

CCCCCCC(C)O[Si](C)c1ccc(C)cc1 (stereo not drawn)
inactive: dose: 100.0 mg/kg/injection, schedule: Q01DX009 (ip), vehicle: saline with Tween-80 103 % of control | [6] 113 % of control | dose: 200.0 mg/kg/injection, schedule: Q01DX009 (ip), vehicle: saline with Tween-80 90 % of control | [7] 97 % of control | dose: 400.0 mg/kg/injection, schedule: Q01DX009 (ip), vehicle: saline with Tween-80 97 % of control | [8] 87 % of control

O=C1CCC(CC2CCCCC2)CC1
inactive: [6] 100 % of control | [7] 95 % of control

O=[N+]([O-])c1cccc(OCCCOc2cccc([N+](=O)[O-])c2)c1
inactive: [10] 103 % of control | [11] 102 % of control | [12] 100 % of control

CC(N)C(=O)NC(C(=O)O)C(C)O (stereo not drawn)
inactive: dose: 25.0 mg/kg/injection, schedule: Q04DX002 (ip), vehicle: saline 98 % of control | dose: 50.0 mg/kg/injection, schedule: Q04DX002 (ip), vehicle: saline 121 % of control | [13] 113 % of control

O=C(c1ccccc1)c1ccc(Br)cc1O
inactive: dose: 100.0 mg/kg/injection, schedule: Q01DX001 (ip), vehicle: carboxymethylcellulose (CMC) 105 % of control | dose: 200.0 mg/kg/injection, schedule: Q01DX001 (ip), vehicle: carboxymethylcellulose (CMC) 98 % of control | dose: 400.0 mg/kg/injection, schedule: Q01DX001 (ip), vehicle: carboxymethylcellulose (CMC) 100 % of control

O=C1c2ccccc2C(=O)N1OCCCCCCON1C(=O)c2ccccc2C1=O
inactive: [2] 92 % of control | [4] 94 % of control | [5] 97 % of control

CC[n+]1csc2ccccc21
inactive: [9] 102 % of control | dose: 150.0 mg/kg/injection, schedule: Q01DX001 (ip), vehicle: saline 105 % of control | dose: 300.0 mg/kg/injection, schedule: Q01DX001 (ip), vehicle: saline 97 % of control

CC1(c2ccccc2)OC(=O)c2c1ccc1ccccc21 (stereo not drawn)
inactive: dose: 100.0 mg/kg/injection, schedule: Q01DX001 (ip), vehicle: saline with Tween-80 94 % of control | dose: 200.0 mg/kg/injection, schedule: Q01DX001 (ip), vehicle: saline with Tween-80 95 % of control | dose: 400.0 mg/kg/injection, schedule: Q01DX001 (ip), vehicle: saline with Tween-80 90 % of control

O=[N+]([O-])c1ccc2nc(-c3ccccc3)nn2c1
inactive: dose: 100.0 mg/kg/injection, schedule: Q01DX001 (ip), vehicle: acetone 92 % of control | dose: 200.0 mg/kg/injection, schedule: Q01DX001 (ip), vehicle: acetone 87 % of control | dose: 400.0 mg/kg/injection, schedule: Q01DX001 (ip), vehicle: acetone 93 % of control

O=C(Cc1ccc(N(CCCl)CCCl)cc1)NC1CCCC1
inactive: [14] 117 % of control | [15] 120 % of control | dose: 266.0 mg/kg/injection, schedule: Q04DX003 (ip), vehicle: Klucel (hydroxypropylcellulose) (HPC) 107 % of control and 112 % of control | [16] 102 % of control and 119 % of control

CC(=O)c1ccc(C(=O)NCCCc2c(C)nc(N)[nH]c2=O)cc1
inactive: [6] 95 % of control | [7] 90 % of control | [8] 90 % of control

O=C(NCCO)Nc1ccccc1Cl
inactive: [13] 103 % of control | [17] 100 % of control | [18] 100 % of control

CCC(C)(CC)NC(C)=O
inactive: [14] 99 % of control | [15] 103 % of control

CN(C)C(=S)N1CC2C3CCC(O3)C2C1 (stereo not drawn)
inactive: [14] 95 % of control | [15] 104 % of control

Cc1ccc(S(=O)(=O)OCCC2=CCC3CC2C3(C)C)cc1 (stereo not drawn)
inactive: [13] 103 % of control | [17] 95 % of control | [18] 95 % of control

CC(CCC(CCC(C)CC(C)(C)C)CCC(C)CC(C)(C)C)CC(C)(C)C (stereo not drawn)
inactive: dose: 75.0 mg/kg/injection, schedule: Q01DX001 (ip), vehicle: saline with Tween-80 104 % of control | dose: 300.0 mg/kg/injection, schedule: Q01DX001 (ip), vehicle: saline with Tween-80 97 % of control

Cc1ccc(N=C(C(=Nc2ccc(C)cc2)c2ccccc2)c2ccccc2)cc1
inactive: [6] 91 % of control | [7] 90 % of control | [8] 88 % of control

N/C(=N\N=C\c1ccccn1)c1ccccn1
inactive: dose: 10.0 mg/kg/injection, schedule: Q01DX001 (ip), vehicle: water 93 % of control

O=CNc1ccccc1Sc1ccc(C(=O)O)cc1[N+](=O)[O-]
inactive: [14] 100 % of control | [15] 107 % of control | [16] 104 % of control

Cc1cc(C)c(NC2=NCCS2)cc1C
inactive: dose: 100.0 mg/kg/injection, schedule: Q04DX002 (ip), vehicle: saline with Tween-80 100 % of control
